Reference: ChEMBL document CHEMBL4425172, “Chemical synthesis, pharmacological evaluation and in silico analysis of new 2,3,3a,4,5,6-hexahydrocyclopenta[c]pyrazole derivatives as potential anti-mitotic agents” (Bioorg Med Chem Lett, 2016)
The source made the active and inactive calls. The rule behind the calls is not given here.

Columns and labels:
[1] = tested on: MDA-MB-231; experiment: Antiproliferative activity against human MDA-MB-231 cells assessed as reduction in cell viability measured after 72 hrs by MTS assay; format: functional, cell-based
[2] = tested on: MDA-MB-468; experiment: Antiproliferative activity against human MDA-MB-468 cells assessed as reduction in cell viability measured after 72 hrs by MTS assay; format: functional, cell-based
[3] = tested on: T47D; experiment: Antiproliferative activity against human T47D cells assessed as reduction in cell viability measured after 72 hrs by MTS assay; format: functional, cell-based
[4] = tested on: MCF7; experiment: Antiproliferative activity against human MCF7 cells assessed as reduction in cell viability measured after 72 hrs by MTS assay; format: functional, cell-based
[5] = tested on: A549; experiment: Antiproliferative activity against human A549 cells assessed as reduction in cell viability measured after 72 hrs by MTS assay; format: functional, cell-based
[6] = Binding affinity to goat tubulin by double reciprocal plot analysis; design: species or system Capra hircus
[7] = organism: Capra hircus; experiment: Binding affinity to goat tubulin assessed as increase in tubulin-colchicine fluorescence preincubated for 30 mins followed by colchicine addition measured after 60 mins by tryptophan fluorescence quenching assay
[8] = organism: Capra hircus; experiment: Binding affinity to goat tubulin by tryptophan fluorescence quenching assay
[9] = Homo sapiens, MDA-MB-231, 72 h, read-out: IC50
[10] = Homo sapiens, MDA-MB-468, 72 h, read-out: IC50
[11] = Homo sapiens, T47D, 72 h, read-out: IC50
[12] = Homo sapiens, MCF7, 72 h, read-out: IC50
[13] = Homo sapiens, A549, 72 h, read-out: IC50

| IC50 [1, 9] [µM] | IC50 [2, 10] [µM] | IC50 [3, 11] [µM] | IC50 ([4]; mcf7) | IC50 ([5]; a549) | IC50 ([1]; mda-mb-231) | IC50 ([3]; t47d) | IC50 [4, 12] [µM] | IC50 [5, 13] [µM] | Kd [6] [µM] | Activity [7] | Activity [8] | IC50 ([2]; mda-mb-468) | Compound |
| --- | --- | --- | --- | --- | --- | --- | --- | --- | --- | --- | --- | --- | --- |
| 144 | 186 | 129 | Not Active | Not Active |  |  |  |  |  |  |  |  | CC(C)c1ccc(C2NN=C3CCCC32)cc1 (centres undefined) |
|  | 15.5 |  | Not Active | Not Active | Not Active | Not Active |  |  |  |  |  |  | CC(C)c1ccc(C2C3CCCC3=NN2S(=O)(=O)c2ccc(Cl)cc2)cc1 (centres undefined) |
| 8.7 | 1 | 0.8 |  |  |  |  | 15.8 | 19.1 | 85 | Dose-dependent effect |  |  | COc1ccc(C2C3CCCC3=NN2S(C)(=O)=O)cc1 (centres undefined) |
|  | 28.2 |  | Not Active | Not Active | Not Active | Not Active |  |  |  |  |  |  | CC(C)c1ccc(C2C3CCCC3=NN2S(=O)(=O)c2ccc([N+](=O)[O-])cc2)cc1 (centres undefined) |
| 15.5 | 7.9 | 40.7 | Not Active | Not Active |  |  |  |  |  |  |  |  | Cc1ccc(S(=O)(=O)N2N=C3CCCC3C2c2ccc(C(C)C)cc2)cc1 (centres undefined) |
| 42.7 | 43.7 |  | Not Active | Not Active |  | Not Active |  |  |  |  |  |  | O=[N+]([O-])c1ccc(S(=O)(=O)N2N=C3CCCC3C2c2ccc(Cl)cc2)cc1 (centres undefined) |
| 30.9 | 14.8 | 37.2 |  |  |  |  | 38 | 30.9 |  |  |  |  | Fc1ccc(C2NN=C3CCCC32)cc1 (centres undefined) |
| 1.1 | 3.8 | 3.3 |  |  |  |  | 50.1 | 5.8 |  |  | Active |  | Cc1ccc(S(=O)(=O)N2N=C3CCCC3C2c2ccc(F)cc2)cc1 (centres undefined) |
|  | 120 |  | Not Active | Not Active | Not Active | Not Active |  |  |  |  |  |  | CC(C)c1ccc(C2C3CCCC3=NN2S(C)(=O)=O)cc1 (centres undefined) |
|  |  |  |  | Not Active | Not Active | Not Active | 151 |  |  |  |  | Not Active | COc1ccc(C2C3CCCC3=NN2S(=O)(=O)c2ccc([N+](=O)[O-])cc2)cc1 (centres undefined) |
|  | 20 |  |  |  | Not Active | Not Active | 24 | 44.7 |  |  |  |  | COc1ccc(C2NN=C3CCCC32)cc1 (centres undefined) |
|  |  |  |  | Not Active | Not Active | Not Active | 178 |  |  |  |  | Not Active | COc1ccc(C2C3CCCC3=NN2S(=O)(=O)c2ccc(C)cc2)cc1 (centres undefined) |
| 51.3 | 70.8 |  |  |  |  | Not Active | 75.9 | 81.3 | 127 | Dose-dependent effect |  |  | CS(=O)(=O)N1N=C2CCCC2C1c1ccc(F)cc1 (centres undefined) |
| 9.3 |  | 89.1 | Not Active | Not Active |  |  |  |  |  |  |  | Not Active | O=S(=O)(c1ccc(Cl)cc1)N1N=C2CCCC2C1c1ccc(F)cc1 (centres undefined) |
| 0.1 | 0.2 | 0.2 |  |  |  |  | 0.1 |  |  |  |  |  | CC(=O)O[C@H]1C(=O)[C@@]2(C)[C@H]([C@H](OC(=O)c3ccccc3)[C@]3(O)C[C@H](OC(=O)[C@H](O)[C@@H](NC(=O)c4ccccc4)c4ccccc4)C(C)=C1C3(C)C)[C@]1(OC(C)=O)CO[C@@H]1C[C@@H]2O [PACLITAXEL] |
| 25.1 | 10.2 | 29.5 |  |  |  |  | 51.3 | 47.9 |  |  |  |  | Clc1ccc(C2NN=C3CCCC32)cc1 (centres undefined) |
